# In PMC11079024, “Identification of a family of species-selective complex I inhibitors as potential anthelmintics” (Nature Communications, 2024):
# Where two headings read alike, the source gives them in different places.
# Columns and labels:
# [1] = target: C. elegans (N2) complex I (NADH:ubiquinone oxidoreductase) (Caenorhabditis elegans, UniProt P24887+Q93873+Q94360); test: biochemical; format: biochemical; conditions: for activity at 0.0001 µM / activity at 0.0005 µM / activity at 0.001 µM / activity at 0.0025 µM / activity at 0.005 µM / activity at 0.013 µM / activity at 0.025 µM / activity at 0.063 µM / activity at 0.125 µM / activity at 0.313 µM / activity at 0.625 µM / activity at 1.5 µM / activity at 3 µM / activity at 15 µM / activity at 37.5 µM / activity at 75 µM: read-out: C. elegans mitochondrial complex I activity; for Log IC50 C. elegans complex I: log10 of IC50 in µM, C. elegans mitochondria
# How it was run: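 Mitochondria from liquid-cultured adults were freeze-thawed thrice before the 15-min DCIP-coupled NADH oxidation read.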
# [2] = target: B. taurus (heart) complex I (Bos taurus, UniProt P03887+P17694+P42026); test: biochemical; format: biochemical; conditions: for IC50: B. taurus heart mitochondria, estimated from fitted dose-response curves, read-out: B. taurus Complex I IC50; for activity at 0.0001 µM / activity at 0.0005 µM / activity at 0.001 µM / activity at 0.0025 µM / activity at 0.005 µM / activity at 0.013 µM / activity at 0.025 µM / activity at 0.063 µM / activity at 0.125 µM / activity at 0.313 µM / activity at 0.625 µM / activity at 1.5 µM / activity at 3 µM / activity at 15 µM / activity at 37.5 µM / activity at 75 µM: read-out: B. taurus mitochondrial complex I activity; for Log IC50 B. taurus complex I: log10 of IC50 in µM, B. taurus mitochondria
# How it was run: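 Complex I activity followed as DCIP reduction (600 nm, 30 s reads, 15 min) with 80 μM NADH and 60 μM decylubiquinone in 25 mM KPi pH 7.5 containing 2 μM antimycin A and 2 mM KCN. Freeze-thawed mouse or bovine heart mitochondria at 0.2 mg/mL; initial-rate percent of solvent control, single-point 100 μM or dose-response.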
# L1 wild-type C. elegans = test: microbe, parasite or virus in culture; conditions: Caenorhabditis elegans, read-out: C. elegans KCN Survival Assay LC50, estimated from fitted dose-response curves; mean of at least two biological replicates
# [3] = wild-type C. elegans, individual Rep1-Rep4, read-out: percent in vitro complex I activity relative to solvent control, single replicates
# [4] = wild-type C. elegans, mean of Rep1-4, read-out: percent in vitro complex I activity relative to solvent control, Mean
# [5] = in vitro complex I dose response on C. elegans mitochondria, average of at least two biological replicates, fit in R (DRC), read-out: IC50 C. elegans complex I
# [6] = wild-type C. elegans mitochondria, estimated from fitted dose-response curves, read-out: C. elegans Complex I IC50
# Sequence of B. taurus (heart) complex I (P03887 whole entry): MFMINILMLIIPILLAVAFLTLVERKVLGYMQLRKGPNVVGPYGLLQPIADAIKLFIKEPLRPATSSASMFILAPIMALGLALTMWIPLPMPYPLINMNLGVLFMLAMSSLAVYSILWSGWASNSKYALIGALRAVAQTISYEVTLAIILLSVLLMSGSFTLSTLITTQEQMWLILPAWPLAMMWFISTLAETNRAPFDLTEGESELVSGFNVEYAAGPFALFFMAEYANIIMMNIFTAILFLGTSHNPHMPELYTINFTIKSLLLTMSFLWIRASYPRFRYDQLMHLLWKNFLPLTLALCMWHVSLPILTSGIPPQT
# Sequence of B. taurus (heart) complex I (P17694 34-463): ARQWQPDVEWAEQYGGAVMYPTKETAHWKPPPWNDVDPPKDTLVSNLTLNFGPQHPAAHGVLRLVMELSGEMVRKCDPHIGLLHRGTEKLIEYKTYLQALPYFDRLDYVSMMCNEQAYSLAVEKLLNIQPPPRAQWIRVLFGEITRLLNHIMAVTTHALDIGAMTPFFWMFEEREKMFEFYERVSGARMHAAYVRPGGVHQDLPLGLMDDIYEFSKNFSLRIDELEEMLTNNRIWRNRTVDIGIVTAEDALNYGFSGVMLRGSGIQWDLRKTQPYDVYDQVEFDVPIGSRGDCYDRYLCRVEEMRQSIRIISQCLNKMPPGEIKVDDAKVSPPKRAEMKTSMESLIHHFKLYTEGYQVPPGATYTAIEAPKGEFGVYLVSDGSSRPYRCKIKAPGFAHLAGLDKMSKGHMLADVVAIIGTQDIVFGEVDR
# Sequence of B. taurus (heart) complex I (P42026 38-216): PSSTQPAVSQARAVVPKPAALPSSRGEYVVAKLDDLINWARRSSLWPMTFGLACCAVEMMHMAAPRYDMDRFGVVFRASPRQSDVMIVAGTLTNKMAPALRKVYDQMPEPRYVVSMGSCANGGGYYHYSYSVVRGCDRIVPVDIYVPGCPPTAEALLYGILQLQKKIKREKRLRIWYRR
# Sequence of C. elegans (N2) complex I (NADH:ubiquinone oxidoreductase) (Q94360 17-199): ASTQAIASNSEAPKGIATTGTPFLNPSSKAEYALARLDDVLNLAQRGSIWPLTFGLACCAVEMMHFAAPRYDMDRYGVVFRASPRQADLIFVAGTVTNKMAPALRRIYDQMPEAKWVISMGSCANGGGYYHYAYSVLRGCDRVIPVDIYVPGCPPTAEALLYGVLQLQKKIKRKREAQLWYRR
# Sequence of C. elegans (N2) complex I (NADH:ubiquinone oxidoreductase) (P24887 whole entry): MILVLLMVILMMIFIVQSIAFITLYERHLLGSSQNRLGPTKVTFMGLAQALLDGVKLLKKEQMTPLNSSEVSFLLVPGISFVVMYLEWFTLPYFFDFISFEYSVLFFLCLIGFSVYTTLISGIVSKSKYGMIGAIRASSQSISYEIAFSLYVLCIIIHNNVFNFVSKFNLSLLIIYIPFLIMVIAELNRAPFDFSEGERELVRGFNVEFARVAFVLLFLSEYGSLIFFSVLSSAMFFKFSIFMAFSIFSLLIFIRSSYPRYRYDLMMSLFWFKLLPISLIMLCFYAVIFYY
# Sequence of C. elegans (N2) complex I (NADH:ubiquinone oxidoreductase) (Q93873 31-482): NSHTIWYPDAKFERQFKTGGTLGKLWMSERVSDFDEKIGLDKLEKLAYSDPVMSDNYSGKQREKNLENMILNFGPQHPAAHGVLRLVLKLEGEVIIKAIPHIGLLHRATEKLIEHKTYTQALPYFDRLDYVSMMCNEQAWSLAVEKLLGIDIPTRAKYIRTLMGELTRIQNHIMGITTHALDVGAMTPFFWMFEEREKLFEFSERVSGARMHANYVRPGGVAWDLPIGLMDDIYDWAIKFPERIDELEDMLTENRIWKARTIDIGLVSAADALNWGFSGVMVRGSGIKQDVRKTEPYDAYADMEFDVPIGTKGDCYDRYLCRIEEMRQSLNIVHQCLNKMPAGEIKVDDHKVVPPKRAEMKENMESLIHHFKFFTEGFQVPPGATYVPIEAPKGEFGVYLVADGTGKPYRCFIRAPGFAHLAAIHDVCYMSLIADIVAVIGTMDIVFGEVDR
structure (smiles),measurement,setting,value
Clc1ccccc1OCCCCn1cnc2ccccc21 [Compound 7925804],remaining activity at 0.0001 µM,[1]; [3],106%
same,remaining activity at 0.0001 µM,[1]; [4],95.7%
same,remaining activity at 0.0005 µM,[1]; [3],98.1%
same,remaining activity at 0.0005 µM,[1]; [4],95.4%
same,remaining activity at 0.001 µM,"[1]; 0.001 µM, wild-type C. elegans, mean of Rep1-4, read-out: percent in vitro complex I activity relative to solvent control, Mean",95.9%
same,remaining activity at 0.0025 µM,[1]; [3],100%
same,remaining activity at 0.0025 µM,[1]; [4],100%
same,remaining activity at 0.005 µM,[1]; [3],93.7%
same,remaining activity at 0.005 µM,[1]; [4],93.4%
same,remaining activity at 0.013 µM,[1]; [3],92.2%
same,remaining activity at 0.013 µM,[1]; [4],96.2%
same,remaining activity at 0.025 µM,[1]; [3],86.9%
same,remaining activity at 0.025 µM,[1]; [4],94.4%
same,remaining activity at 0.063 µM,[1]; [3],83.6%
same,remaining activity at 0.063 µM,[1]; [4],81.6%
same,remaining activity at 0.125 µM,[1]; [3],65.6%
same,remaining activity at 0.125 µM,[1]; [4],64.9%
same,remaining activity at 0.313 µM,[1]; [3],53.9%
same,remaining activity at 0.313 µM,[1]; [4],47.4%
same,remaining activity at 0.625 µM,"[1]; 0.625 µM, wild-type C. elegans, mean of Rep1-4, read-out: percent in vitro complex I activity relative to solvent control, Mean",32.7%
same,remaining activity at 1.5 µM,"[1]; 1.5 µM, wild-type C. elegans, mean of Rep1-4, read-out: percent in vitro complex I activity relative to solvent control, Mean",15.5%
same,remaining activity at 3 µM,"[1]; 3 µM, wild-type C. elegans, mean of Rep1-4, read-out: percent in vitro complex I activity relative to solvent control, Mean",8.88%
same,remaining activity at 15 µM,"[1]; 15 µM, wild-type C. elegans, mean of Rep1-4, read-out: percent in vitro complex I activity relative to solvent control, Mean",2.59%
same,remaining activity at 37.5 µM,"[1]; 37.5 µM, wild-type C. elegans, mean of Rep1-4, read-out: percent in vitro complex I activity relative to solvent control, Mean",2.95%
same,remaining activity at 75 µM,"[1]; 75 µM, wild-type C. elegans, mean of Rep1-4, read-out: percent in vitro complex I activity relative to solvent control, Mean",6.38%
same,activity at 0.0001 µM,[1],95.7%
same,activity at 0.0005 µM,[1],95.4%
same,activity at 0.001 µM,[1],95.9%
same,activity at 0.0025 µM,[1],100%
same,activity at 0.005 µM,[1],93.4%
same,activity at 0.013 µM,[1],96.2%
same,activity at 0.025 µM,[1],94.4%
same,activity at 0.063 µM,[1],81.6%
same,activity at 0.125 µM,[1],64.9%
same,activity at 0.313 µM,[1],47.4%
same,activity at 0.625 µM,[1],32.7%
same,activity at 1.5 µM,[1],15.5%
same,activity at 3 µM,[1],8.88%
same,activity at 15 µM,[1],2.59%
same,activity at 37.5 µM,[1],2.95%
same,activity at 75 µM,[1],6.38%
same,IC50,[1]; [5],0.27 µM
same,Log IC50 C. elegans complex I,[1],-0.57 µM
same,IC50,[1]; [6],0.27 µM
same,IC50,[2],1.35 µM
same,activity at 0.0001 µM,[2],106%
same,activity at 0.0005 µM,[2],116%
same,activity at 0.001 µM,[2],117%
same,activity at 0.0025 µM,[2],118%
same,activity at 0.005 µM,[2],118%
same,activity at 0.013 µM,[2],117%
same,activity at 0.025 µM,[2],116%
same,activity at 0.063 µM,[2],111%
same,activity at 0.125 µM,[2],99.3%
same,activity at 0.313 µM,[2],90.5%
same,activity at 0.625 µM,[2],75.5%
same,activity at 1.5 µM,[2],54.8%
same,activity at 3 µM,[2],39.2%
same,activity at 15 µM,[2],9.9%
same,activity at 37.5 µM,[2],3.53%
same,activity at 75 µM,[2],2.37%
same,Log IC50 B. taurus complex I,[2],0.13 µM
same,LC50,L1 wild-type C. elegans,6.97 µM
Nc1nc2ccccc2n1Cc1ccc(Cl)cc1 [Compound 5652765],activity at 0.0001 µM,[1],86.1%
same,activity at 0.0005 µM,[1],92.1%
same,activity at 0.001 µM,[1],93.5%
same,activity at 0.0025 µM,[1],93.8%
same,activity at 0.005 µM,[1],90.5%
same,activity at 0.013 µM,[1],90.4%
same,activity at 0.025 µM,[1],78.8%
same,activity at 0.063 µM,[1],76.6%
same,activity at 0.125 µM,[1],72.5%
same,activity at 0.313 µM,[1],39.7%
same,activity at 0.625 µM,[1],49.3%
same,activity at 1.5 µM,[1],25.2%
same,activity at 3 µM,[1],11.5%
same,activity at 15 µM,[1],0.44%
same,activity at 37.5 µM,[1],0.7%
same,activity at 75 µM,[1],0.75%
same,IC50,[1]; [5],0.47 µM
same,Log IC50 C. elegans complex I,[1],-0.33 µM
same,IC50,"[1]; wild-type (N2) mitochondria, read-out: C. elegans Complex I IC50",0.47 µM
same,IC50,[1]; [6],0.47 µM
same,IC50,[2],2.27 µM
same,activity at 0.0001 µM,[2],93.5%
same,activity at 0.0005 µM,[2],96.1%
same,activity at 0.001 µM,[2],91%
same,activity at 0.0025 µM,[2],95.6%
same,activity at 0.005 µM,[2],88.8%
same,activity at 0.013 µM,[2],88.3%
same,activity at 0.025 µM,[2],83.3%
same,activity at 0.063 µM,[2],87.9%
same,activity at 0.125 µM,[2],79.5%
same,activity at 0.313 µM,[2],76.3%
same,activity at 0.625 µM,[2],72.5%
same,activity at 1.5 µM,[2],54.3%
same,activity at 3 µM,[2],36.4%
same,activity at 15 µM,[2],4.61%
same,activity at 37.5 µM,[2],0.42%
same,activity at 75 µM,[2],0.3%
same,Log IC50 B. taurus complex I,[2],0.36 µM
same,LC50,L1 wild-type C. elegans,16.9 µM
